# From patent US20260138976A1 (Hoffmann-La Roche Inc., priority 2022, published 2026)
# Columns and labels:
# [1] = target: T1, DGKζ (hDGKzeta(1-928)-N-His) (Homo sapiens, UniProt Q13574); experiment: In vitro DGK inhibition assay, DGKzeta ADP Glo (in house); type: biochemical; conditions: 2 nM DGKζ, 50 μM ATP, 125 uM DLG in liposomes, 1 hour reaction
# T1 construct: hDGKzeta(1-928)-N-His; His (N); made in house; host or cells: Sf21 insect cells (baculovirus)
# Method in brief: (§1)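 ADP-Glo luminescence measured ADP formed over 1 h by Sf21-expressed full-length human enzymes: DGKα at 4 nM with 25 µM ATP, DGKζ at 2 nM with 50 µM ATP, both on 125 µM DLG in PS/PC liposomes. Dose–response used 11 threefold dilutions at 2% final DMSO.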
# primary human T-cells = experiment: Proliferation assay (5 days, CellTiter-Glo, CD3-stimulated T-cells); type: cell-based; conditions: for Emax proliferation (% activation): CD3 condition, normalised to DMSO (neutral) and 20 μM reference compound A1 = 100%; for EC50: Homo sapiens, T-cell, 120 h, CD3-stimulated primary human T-cells, 5 days, CellTiter-Glo, fitted sigmoidal curve, read-out: Tcell Proliferation CD3 EC50
# Method in brief: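 Proliferation read-out: ATP luminescence (CellTiter-Glo 2.0) at day 5 in expanded primary human T-cells on CD3 antibody-coated plates, with PBS-only plates as a counter screen. Compounds in 5–6 pt series (factor 3.333, top 20 or 10 μM final). Values are normalized to DMSO (neutral) and 20 μM reference A1 (100%), from sigmoidal fits.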
# [2] = target: T2, DGKα (hDGKalpha(1-735)-N-His) (Homo sapiens, UniProt P23743); experiment: In vitro DGK inhibition assay, DGKalpha ADP Glo (in house); type: biochemical; conditions: 4 nM DGKα, 25 μM ATP, 125 uM DLG in liposomes, 1 hour reaction
# T2 construct: hDGKalpha(1-735)-N-His; His (N); made in house; host or cells: Sf21 insect cells (baculovirus)
# Method in brief: as §1
# T1 sequence (Q13574 whole entry): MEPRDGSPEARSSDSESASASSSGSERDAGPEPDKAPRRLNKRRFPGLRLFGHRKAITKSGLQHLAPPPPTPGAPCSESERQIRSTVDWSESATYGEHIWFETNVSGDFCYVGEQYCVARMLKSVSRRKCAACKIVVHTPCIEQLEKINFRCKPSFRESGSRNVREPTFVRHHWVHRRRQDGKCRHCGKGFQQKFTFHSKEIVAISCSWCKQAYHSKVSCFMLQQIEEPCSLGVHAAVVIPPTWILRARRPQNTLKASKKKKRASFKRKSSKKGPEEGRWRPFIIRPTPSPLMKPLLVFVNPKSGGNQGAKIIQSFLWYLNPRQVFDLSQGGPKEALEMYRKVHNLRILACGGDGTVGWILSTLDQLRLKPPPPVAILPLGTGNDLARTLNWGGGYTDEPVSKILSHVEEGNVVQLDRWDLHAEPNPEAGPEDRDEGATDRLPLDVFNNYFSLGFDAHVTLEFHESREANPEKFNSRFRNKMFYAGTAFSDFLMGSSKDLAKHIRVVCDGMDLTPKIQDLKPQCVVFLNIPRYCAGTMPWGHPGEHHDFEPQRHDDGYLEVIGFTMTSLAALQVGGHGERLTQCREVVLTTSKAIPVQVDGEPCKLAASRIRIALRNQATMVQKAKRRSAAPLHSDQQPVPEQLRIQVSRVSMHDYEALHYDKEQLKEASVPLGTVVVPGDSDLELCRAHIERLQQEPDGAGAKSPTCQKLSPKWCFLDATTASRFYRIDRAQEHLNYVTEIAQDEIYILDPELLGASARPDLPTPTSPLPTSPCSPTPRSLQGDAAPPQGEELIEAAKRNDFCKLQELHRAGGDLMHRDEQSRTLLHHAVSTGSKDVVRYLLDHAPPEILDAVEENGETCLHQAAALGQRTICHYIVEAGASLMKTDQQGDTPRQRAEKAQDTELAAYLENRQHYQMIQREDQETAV
# T2 sequence (P23743 whole entry): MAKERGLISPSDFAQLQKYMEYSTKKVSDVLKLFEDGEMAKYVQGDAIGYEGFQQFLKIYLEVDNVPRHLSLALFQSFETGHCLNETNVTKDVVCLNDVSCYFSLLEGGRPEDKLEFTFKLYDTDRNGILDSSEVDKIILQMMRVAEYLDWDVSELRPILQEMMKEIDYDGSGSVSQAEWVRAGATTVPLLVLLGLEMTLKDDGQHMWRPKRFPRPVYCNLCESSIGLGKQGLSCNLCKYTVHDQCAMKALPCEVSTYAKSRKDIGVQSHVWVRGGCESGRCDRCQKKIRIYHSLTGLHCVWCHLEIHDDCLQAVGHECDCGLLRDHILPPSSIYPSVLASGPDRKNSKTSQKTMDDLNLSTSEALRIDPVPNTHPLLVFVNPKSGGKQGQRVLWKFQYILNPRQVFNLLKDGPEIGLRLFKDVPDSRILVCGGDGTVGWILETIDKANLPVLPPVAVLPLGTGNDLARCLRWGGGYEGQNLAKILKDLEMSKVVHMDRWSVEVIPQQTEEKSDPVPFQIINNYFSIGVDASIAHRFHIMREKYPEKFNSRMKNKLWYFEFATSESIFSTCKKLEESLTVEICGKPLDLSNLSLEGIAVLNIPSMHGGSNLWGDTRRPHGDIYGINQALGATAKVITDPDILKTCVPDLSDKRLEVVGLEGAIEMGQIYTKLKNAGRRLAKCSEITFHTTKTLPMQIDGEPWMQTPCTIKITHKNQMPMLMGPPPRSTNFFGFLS
IC50 [1] [µM],IC50 [2] [µM],Compound,Emax proliferation (% activation) (primary human T-cells),EC50 (primary human T-cells) [µM]
0.183,0.762,"CC(C)(C#N)c1nnc(-c2cc3c(cc2F)S(=O)(=O)C[C@H](N)C(=O)N3Cc2ccc(-c3ccc(C(F)(F)F)cn3)cc2)o1 [Example 88, 2-[5-[(3R)-3-amino-8-fluoro-1,1,4-trioxo-5-[[4-[5-(trifluoromethyl)-2-pyridyl]phenyl]methyl]-2,3-dihydro-1λ^6,5-benzothiazepin-7-yl]-1,3,4-oxadiazol-2-yl]-2-methyl-propanenitrile]",106,0.0451
2.14,23.9,"CC(C)(C)c1nnc(-c2ccc3c(c2)N(Cc2ccc(-n4nnc(C(F)(F)F)n4)cc2)C(=O)[C@@H](N)CS3(=O)=O)o1 [Example 90, (3R)-3-amino-7-(5-tert-butyl-1,3,4-oxadiazol-2-yl)-1,1-dioxo-5-[[4-[5-(trifluoromethyl)tetrazol-2-yl]phenyl]methyl]-2,3-dihydro-1λ^6,5-benzothiazepin-4-one]",152,0.344
1.71,17.5,Cn1nc(C(F)(F)F)cc1-c1ccc(CN2C(=O)[C@@H](N)CS(=O)(=O)c3ccc(-c4nnc(C(C)(C)C)o4)cc32)cc1 [Example 92],170,0.835
0.485,0.884,"CC(C)(C)c1nnc(-c2ccc3c(c2)N(Cc2ccc(-c4ncc(C(F)(F)F)o4)cc2)C(=O)[C@@H](N)CS3(=O)=O)o1 [Example 93, (3R)-3-amino-7-(5-tert-butyl-1,3,4-oxadiazol-2-yl)-1,1-dioxo-5-[[4-[5-(trifluoromethyl)oxazol-2-yl]phenyl]methyl]-2,3-dihydro-1λ^6,5-benzothiazepin-4-one]",104,0.12
1.46,> 62.5,CC(C)(C#N)c1nnc(-c2ccc3c(c2)N(Cc2ccc(-c4cnc(C(F)(F)F)nc4)cc2)C(=O)[C@@H](N)CS3(=O)=O)o1 [Example 100],96,1.9
0.747,1.12,"CC(C)(C#N)c1nnc(-c2ccc3c(c2)N(Cc2ccc(-n4cc(C(F)(F)F)cn4)cc2)C(=O)[C@@H](N)CS3(=O)=O)o1 [Example 102, 2-[5-[(3R)-3-amino-1,1,4-trioxo-5-[[4-[4-(trifluoromethyl)pyrazol-1-yl]phenyl]methyl]-2,3-dihydro-1λ^6,5-benzothiazepin-7-yl]-1,3,4-oxadiazol-2-yl]-2-methyl-propanenitrile]",127,0.363
0.787,0.694,"CC(C)(C#N)c1nnc(-c2ccc3c(c2)N(Cc2ccc(-c4ncc(C(F)(F)F)o4)cc2)C(=O)[C@@H](N)CS3(=O)=O)o1 [Example 105, 2-[5-[(3R)-3-amino-1,1,4-trioxo-5-[[4-[5-(trifluoromethyl)oxazol-2-yl]phenyl]methyl]-2,3-dihydro-1λ^6,5-benzothiazepin-7-yl]-1,3,4-oxadiazol-2-yl]-2-methyl-propanenitrile]",138,0.391
2.37,14.4,CC(C)(C#N)c1nnc(-c2ccc3c(c2)N(Cc2ccc(-c4ccc(C(F)(F)F)cc4)nc2)C(=O)[C@@H](N)CS3(=O)=O)o1 [Example 106],79,3.79
0.843,1.3,"Cn1nc(C(F)(F)F)cc1-c1ccc(CN2C(=O)[C@@H](N)CS(=O)(=O)c3ccc(-c4nnc(C(C)(C)C#N)o4)cc32)cc1 [Example 107, 2-[5-[(3R)-3-amino-5-[[4-[2-methyl-5-(trifluoromethyl)pyrazol-3-yl]phenyl]methyl]-1,1,4-trioxo-2,3-dihydro-1λ^6,5-benzothiazepin-7-yl]-1,3,4-oxadiazol-2-yl]-2-methyl-propanenitrile]",165,2.16

# Second part, the compound before the results:
Compound,IC50 [1] [µM],IC50 [2] [µM],Emax proliferation (% activation) (primary human T-cells),EC50 (primary human T-cells) [µM]
"COC(=O)N1CC(c2nnc(-c3ccc4c(c3)N(Cc3ccc(-c5ccc(C(F)(F)F)cc5)nc3)C(=O)[C@@H](N)CS4(=O)=O)o2)CC(F)(F)C1 (stereo partly drawn) [Example 57, methyl 3,3-difluoro-5-[5-[(3R)-3-amino-1,1,4-trioxo-5-[[6-[4-(trifluoromethyl)phenyl]-3-pyridyl]methyl]-2,3-dihydro-1λ^6,5-benzothiazepin-7-yl]-1,3,4-oxadiazol-2-yl]piperidine-1-carboxylate]",2.34,3.34,181,0.567
"COC(=O)N1CC2CC(c3nnc(-c4ccc5c(c4)N(Cc4ccc(-c6ccc(C(F)(F)F)cc6)nc4)C(=O)[C@@H](N)CS5(=O)=O)o3)(C2)C1 [Example 58, methyl 1-[5-[(3R)-3-amino-1,1,4-trioxo-5-[[6-[4-(trifluoromethyl)phenyl]-3-pyridyl]methyl]-2,3-dihydro-1λ^6,5-benzothiazepin-7-yl]-1,3,4-oxadiazol-2-yl]-3-azabicyclo[3.1.1]heptane-3-carboxylate]",2.14,26.4,114,0.531
"N#CC1(c2nnc(-c3ccc4c(c3)N(Cc3ccc(-c5ccc(C(F)(F)F)cn5)cc3)C(=O)[C@@H](N)CS4(=O)=O)o2)CC1 [Example 62, 1-[5-[(3R)-3-amino-1,1,4-trioxo-5-[[4-[5-(trifluoromethyl)-2-pyridyl]phenyl]methyl]-2,3-dihydro-1λ^6,5-benzothiazepin-7-yl]-1,3,4-oxadiazol-2-yl]cyclopropane-carbonitrile]",1.5,> 19.8,101,1.57
"CCOC(F)(c1nnc(-c2ccc3c(c2)N(Cc2ccc(-c4noc(C(F)(F)F)n4)cc2)C(=O)[C@@H](N)CS3(=O)=O)o1)C(F)(F)F (stereo partly drawn) [Example 64, (3R)-3-amino-7-[5-(1-ethoxy-1,2,2,2-tetrafluoro-ethyl)-1,3,4-oxadiazol-2-yl]-1,1-dioxo-5-[[4-[5-(trifluoromethyl)-1,2,4-oxadiazol-3-yl]phenyl]methyl]-2,3-dihydro-1λ^6,5-benzothiazepin-4-one]",2.79,1.96,132,0.0208
"N[C@H]1CS(=O)(=O)c2ccc(-c3nnc(N4CCC(F)(F)CC4)o3)cc2N(Cc2ccc(-c3noc(C(F)(F)F)n3)cc2)C1=O [Example 68, (3R)-3-amino-7-[5-(4,4-difluoro-1-piperidyl)-1,3,4-oxadiazol-2-yl]-1,1-dioxo-5-[[4-[5-(trifluoromethyl)-1,2,4-oxadiazol-3-yl]phenyl]methyl]-2,3-dihydro-1λ^6,5-benzothiazepin-4-one]",0.625,2.64,104,0.0261
N[C@H]1CS(=O)(=O)c2ccc(-c3nnc(N4CCOC(F)(F)C4)o3)cc2N(Cc2ccc(-c3nnc(C(F)(F)F)o3)cc2)C1=O [Example 80],1.26,11.8,130,0.402
NC(c1nnc(-c2ccc3c(c2)N(Cc2ccc(-c4noc(C(F)(F)F)n4)cc2)C(=O)[C@@H](N)CS3(=O)=O)o1)C(F)(F)F (stereo partly shown) [Example 94],9.19,> 60,42,> 10
CCC(O)(c1nnc(-c2ccc3c(c2)N(Cc2ccc(-c4noc(C(F)(F)F)n4)cc2)C(=O)[C@@H](N)CS3(=O)=O)o1)C(F)(F)F (stereo partly shown) [Example 95],2.42,19,104,1.64
"CC(O)(c1nnc(-c2ccc3c(c2)N(Cc2ccc(-c4noc(C(F)(F)F)n4)cc2)C(=O)[C@@H](N)CS3(=O)=O)o1)C(F)(F)F (stereo partly drawn) [Example 96, (3R)-3-amino-1,1-dioxo-7-[5-(2,2,2-trifluoro-1-hydroxy-1-methyl-ethyl)-1,3,4-oxadiazol-2-yl]-5-[[4-[5-(trifluoromethyl)-1,2,4-oxadiazol-3-yl]phenyl]methyl]-2,3-dihydro-1λ^6,5-benzothiazepin-4-one]",3.38,24.6,103,0.175
"CC(C)(C#N)c1nnc(-c2ccc3c(c2)N(Cc2ccc(-c4noc(C5CCC(F)(F)CC5)n4)cc2)C(=O)[C@@H](N)CS3(=O)=O)o1 [Example 101, 2-[5-[(3R)-3-amino-5-[[4-[5-(4,4-difluorocyclohexyl)-1,2,4-oxadiazol-3-yl]phenyl]methyl]-1,1,4-trioxo-2,3-dihydro-1λ^6,5-benzothiazepin-7-yl]-1,3,4-oxadiazol-2-yl]-2-methyl-propanenitrile]",0.192,25.6,175,0.552
